Assay results taken from patent US6809208B2, “3-Arylbenzofuranones with electron-withdrawing substituents as stabilizers” (Ciba Specialty Chemicals Corporation, priority 2000, dated 2004).

Test: Stabilization of polyesters (rancimate, conductivity of separation products)
Conditions: 0.20% stabilizer; 1 hour under pure oxygen at 290° C.; without stabilizer 47
Experimental: 2.5 kg of a polyester which has been dried for 12 hours at 120° C. in a vacuum drying oven (Polyclear® T86, of Hoechst) is charged with the stabilizers listed in Table 23 and is mixed for 2 hours in a Henschel mixer. This mixture is then extruded in a Schwabenthan extruder at a maximum of 275° C. The polymer string is then granulated. The granulate so obtained is dried for another 12 hours in a vacuum drying oven. In a double determination, 500 mg of the granulate is heated over 10 minutes to 290° C. and is stored for 1 hour under pure oxygen in a rancimate at 290° C. The resulting gaseous separation products are continuously led into an aqueous collecting solution and the conductivity (μS) of this solution is continuously measured. Low conductivity values signify that few separation products are formed, high conductivity values signify that very many separation products are formed. […]

Which Conductivity does the source give for CC(C)(C)c1cc2c(c(C(C)(C)C)c1)OC(=O)C2c1cccc(C#N)c1 (stereo not shown) [Compound (107)] here?
The Conductivity was 34 μS.
